Like-named read-outs stand apart in the source and are kept apart here.
B1: SBTI: soybean trypsin inhibitor (protein, UniProt P01070 25-205, looked up)
Trypsin inhibitor A: DFVLDNEGNPLENGGTYYILSDITAFGGIRAAPTGNERCPLTVVQSRNELDKGIGTIISSPYRIRFIAEGHPLSLKFDSFAVIMLCVGIPTEWSVVEDLPEGPAVKIGENKDAMDGWFRLERVSDDEFNNYKLVFCPQQAEDDKCGDIGISIDHDDGTRRLVVSKNKPLVVQFQKLDKESL

Test system: leech-derived protein according to the invention
Test: Effect of typical inhibitors on the activity of the protein
Format: biochemical, Hirudo medicinalis
Settings: for IC50: read-out: IC50 (mM), dose of inhibitor which gave half maximal inhibition
Procedure: Any hydrolysis of the chromogenic substrates. S2251, S2586, S2288. […] A preferred assay method is described below. Preparations for assay are reconstituated or diluted in assay buffer: 50 mM Tris, 0.2M NaCl, 0.05% casein (Hammerstan grade from British Drug Houses), 0.1% Brij 35, 0.01% sodium azide, pH8.0. Activity is det.ermined using modification of the AZOCCLL assay adapted to microtitre plates. Aliquots (100 microliters) of protein. in a range of dilutions in assay buffer, are incubated with a suspension of washed substrate (100 microliters: 10mg/ml) at 37 degrees Celsius. At the end of the incubation period which varies according to the experiment and dose of protein, the undigested substrate is sedimented by centrifugation and aliquots (100 microliters) of the supernatants transferred to another plate in which the absorbance at 560 nm is measured. Protein activity can be expressed as milliequivalent units of bacterial collagenase (Clostridium histolyticum) assayed at the same time under the same conditions.
The effect of some typical inhibitors was examined. The protein (5000 units/ml of a preparation of specific activity 10,000-20,000 units/mg) was incubated with DTT, cysteine, EDTA and leech anti-chymotrypsin in a range of concentrations with substrate. […] The effects of orthophenanthroline (2 mM): TIMP (tissue inhibitor of metallo-proteinase) 0.4 micrograms with APMA (0.5 mM) and with pre-incubation for 15 min): SBTI (7.5 micrograms and 30 min pre-incubation): and PMSF ([…] with 30 min pre-incubation) were also studied.

[1] = protein 5000 units/ml, o-phenanthroline 2 mM, TIMP 0.4 micrograms, SBTI 7.5 micrograms, PMSF single dose only

Row | Molecule | effect of inhibitor on activity of the protein (protein 5000 units/ml) | IC50 (mM), dose of inhibitor which gave half maximal inhibition [1] | IC50 [1] | effect of inhibitor on activity of the protein | IC50
1 | c1cnc2c(c1)ccc1cccnc12 [o-Phenanthroline] | did not inhibit activity | No effect |  |  | 
2 | O=S(=O)(F)Cc1ccccc1 [PMSF] | did not inhibit activity | No effect |  |  | 
3 | N[C@@H](CS)C(=O)O [Cysteine] | destroyed activity |  | 3 mM |  | 
4 | O[C@H](CS)[C@H](O)CS (racemic) [Dithiothreitol] | destroyed activity |  | 0.2 mM |  | 
5 | O=C(O)CN(CCN(CC(=O)O)CC(=O)O)CC(=O)O [EDTA] |  |  |  | destroyed activity | 2 mM
6 | [N-]=[N+]=[N-] [sodium azide] | did not inhibit activity |  |  |  | 
7 | B1 | did not inhibit activity | No effect |  |  | 

Source: patent US5587360A, “Platelet adhesion inhibitor” (Merck Patent GmbH, priority 1990, dated 1996)
